Measurements as given in US20250011307A1, “CRYSTALLINE FORMS OF BIARYL YAP/TAZ-TEAD PROTEIN-PROTEIN INTERACTION INHIBITORS” (Novartis AG, priority 2021, published 2025).

How the values were obtained:
Assay type in all cases: physicochemical
[1] = Hygroscopicity (loss on drying by TGA and XRPD, as is and after storage at 92% / 80% RH); conditions: Compound B forms, TGA temperature per cell: free form @233° C., succinate @205° C., L-malate @200° C., L-lactate @200° C.
[2] = Excipient compatibility stress test (HPLC degradation products, color); parameters: key to CL color: A: No change; B: Slight discoloration; C: Medium discoloration; D: Strong discoloration; conditions: Compound B forms
[3] = Xenon light stress test of bulk (HPLC degradation products, color, XRPD); parameters: key to CL color: A: No change; B: Slight discoloration; C: Medium discoloration; D: Strong discoloration; conditions: Compound B forms, Xenon light (1200 kLuxh, 25° C.)
Experimental: X-ray powder diffraction (XRPD) patterns were obtained using a Bruker Advance D8 in reflection geometry. Powders were analyzed using a zero background Si flat sample holder. The radiation used was Cu Kα (A=1.5418 Å). Patterns were measured between 2° and 40° 2theta. • Sample amount: 5-10 mg • Sample holder: zero background Si flat sample holder
X-ray powder diffraction (XRPD) patterns were obtained using a Bruker Advance D8 in reflection geometry. Powders were analyzed using a zero background Si flat sample holder. The radiation was Cu Kα (λ=1.5418 Å). Patterns were measured between 2° and 40° 2theta. • Sample amount: 5-10 mg • Sample holder: zero background Si flat sample holder

[4] = Solubility after equilibration at 25° C. for 24 h, with final pH and XRPD of solid residues; conditions: Compound B forms
[5] = Solid state bulk stability stress test (HPLC degradation products, color, XRPD); parameters: key to CL color: A: No change; B: Slight discoloration; C: Medium discoloration; D: Strong discoloration; conditions: Compound B forms
[6] = 2 weeks 50° C./75% RH, 1% in HGC powder
[7] = 2 weeks 50° C./75% RH, 1% in HPMC powder
[8] = 2 weeks 50° C./closed, 1% in HGC powder
[9] = 2 weeks 50° C./closed, 1% in HPMC powder

With `CNC[C@]1(c2ccccc2)Oc2cc(F)c(Cl)c(-c3c(C(N)=O)ccc(OC)c3F)c2[C@@H]1C` [Compound B Free form, amorphous, 2-((2S,3S,4S)-5-Chloro-6-fluoro-3-methyl-2-((methylamino)methyl)-2-phenyl-2,3-dihydrobenzofuran-4-yl)-3-fluoro-4-methoxybenzamide] the “Loss on drying by TGA” value ([1]; After 1 day at 92% RH) was 2.14%@233 °C, the “Loss on drying by TGA” value ([1]; Hygroscopicity, As is) was 1.30%@233 °C and the CL color [2, 6] was “A”. For the same compound, the “DP[%] degradation products” value [2, 6] was 2.50%, the CL color [2, 7] was “A” and the “DP[%] degradation products” value [2, 7] was 4.33%. The CL color [2, 8] was “A”, the “DP[%] degradation products” value [2, 8] was 1.87% and the CL color [2, 9] was “A”. The “DP[%] degradation products” value [2, 9] was 2.02%, the “Bulk amber vial (XRPD)” value ([3]; amber vial) was “No change” and the CL color ([3]; amber vial) was “A”. For the same compound, the “DP[%] degradation products, Bulk amber vial (HPLC)” value ([3]; amber vial) was 0.19%, the “Bulk clear quartz vial (XRPD)” value ([3]; clear quartz vial) was “No change” and the CL color ([3]; clear quartz vial) was “C”. The “DP[%] degradation products, Bulk clear quartz vial (HPLC)” value ([3]; clear quartz vial) was 2.74%, the “final pH” value ([4]; Blank FaSSIF) was “[7.36]” and the “Sol. (solubility)” value ([4]; Blank FaSSIF, target concentration 2 mg/mL) was 1490 µg/mL. The “final pH” value ([4]; FaSSIF V2 pH 6.5) was “[7.19]”, the “Sol. (solubility)” value ([4]; FaSSIF V2 pH 6.5, target concentration 2 mg/mL) was 1150 µg/mL and the “final pH” value ([4]; FeSSIF V2 pH 5.8) was “[6.01]”. The “Sol. (solubility)” value ([4]; FeSSIF V2 pH 5.8, target concentration 2 mg/mL) was greater than 2000 µg/mL, the “final pH” value ([4]; SGF pH 2.0) was “[2.22]” and the “Sol. (solubility)” value ([4]; SGF pH 2.0, target concentration 2 mg/mL) was greater than 2000 µg/mL. For the same compound, the “final pH” value ([4]; Water) was “[8.78]”, the “Sol. (solubility)” value ([4]; Water, target concentration 2 mg/mL) was 70 µg/mL and the “final pH” value ([4]; pH 1.2, 100 mM HCl) was “[1.16]”. For the same compound, the “Sol. (solubility)” value ([4]; pH 1.2, 100 mM HCl, target concentration 2 mg/mL) was greater than 2000 µg/mL, the “final pH” value ([4]; pH 3.0, 50 mM citrate buffer) was “[3.08]” and the “Sol. (solubility)” value ([4]; pH 3.0, 50 mM citrate buffer, target concentration 2 mg/mL) was greater than 2000 µg/mL. For the same compound, the “final pH” value ([4]; pH 4.7, 50 mM acetate buffer) was “[4.84]”, the “Sol. (solubility)” value ([4]; pH 4.7, 50 mM acetate buffer, target concentration 2 mg/mL) was greater than 2000 µg/mL and the “final pH” value ([4]; pH 6.8, 50 mM phosphate buffer) was “[6.90]”. The “final pH” value ([4]; pH 6.8, 50 mM phosphate buffer with 50 mM Na taurocholate) was “[6.72]”, the “Sol. (solubility)” value ([4]; pH 6.8, 50 mM phosphate buffer with 50 mM Na taurocholate, target concentration 2 mg/mL) was greater than 2000 µg/mL and the “Sol. (solubility)” value ([4]; pH 6.8, 50 mM phosphate buffer, target concentration 2 mg/mL) was greater than 2000 µg/mL. For the same compound, the “Bulk (XRPD)” value ([5]; 2 weeks 50° C./75% RH) was “gel-like”, the CL color ([5]; 2 weeks 50° C./75% RH) was “A” and the “DP[%] degradation products, Bulk (HPLC)” value ([5]; 2 weeks 50° C./75% RH) was 4.84%. For the same compound, the “Bulk (XRPD)” value ([5]; 2 weeks 80° C./11% RH) was “gel-like”, the CL color ([5]; 2 weeks 80° C./11% RH) was “C” and the “DP[%] degradation products, Bulk (HPLC)” value ([5]; 2 weeks 80° C./11% RH) was 13.00%. The “Bulk (XRPD)” value ([5]; 2 weeks 80° C./75% RH) was “gel-like”, the CL color ([5]; 2 weeks 80° C./75% RH) was “C” and the “DP[%] degradation products, Bulk (HPLC)” value ([5]; 2 weeks 80° C./75% RH) was 14.88%.
